In ChEMBL document CHEMBL5236548, “Marine Natural Products: A Potential Source of Anti-hepatocellular Carcinoma Drugs” (J Med Chem, 2021):

Tests used:
[1] = system: SMMC-7721; assay: Antitumor activity against human SMMC-7721 cells xenografted in mouse assessed as reduction in tumor volume at 20 mg/kg administered once every two days for 21 days relative to control; type: functional; parameters: scale not given: the % may be the effect or the level left; conditions: time 21 day
[2] = system: SMMC-7721; assay: Antiproliferative activity against human SMMC-7721 cells measured after 48 hrs; type: functional, cell-based; conditions: SMMC-7721, 48 h
[3] = system: HepG2; assay: Anticancer activity against human HepG2 cells by SRB assay; type: functional, cell-based
[4] = system: HepG2; assay: Anticancer activity against human HepG2 cells by MTT assay; type: functional, cell-based
[5] = system: Hep 3B2; assay: Cytotoxicity against human Hep3B cells; type: functional, cell-based
[6] = system: Huh-7; assay: Cytotoxicity against human Huh-7 cells; type: functional, cell-based
[7] = system: HepG2; assay: Antiproliferative activity against doxorubicin sensitive human HepG2 cells assessed as decrease in cell proliferation at 50 uM incubated for 24 hrs by MTT assay relative to control; type: functional; parameters: scale not given: the % may be the effect or the level left
[8] = system: HepG2; assay: Antiproliferative activity against doxorubicin resistant human HepG2 cells at 50 uM incubated for 24 hrs by MTT assay relative to control; type: functional
[9] = system: HepG2; assay: Cytotoxicity against human HepG2 cells incubated for 48 hrs by MTT assay; type: functional, cell-based; conditions: HepG2, 48 h
[10] = system: Bel-7402; assay: Growth inhibition of human Bel-7402 cells; type: functional, cell-based
[11] = system: HepG2; assay: Cytotoxicity against human HepG2 cells measured after 3 days by MTT assay; type: functional, cell-based; conditions: HepG2, 72 h
[12] = system: HepG2; assay: Antiproliferative activity against human HepG2 cells incubated for 72 hrs by MTT assay; type: functional, cell-based; conditions: HepG2, 72 h
[13] = Cytotoxicity against human HepG3 cells measured after 3 days by MTT assay; type: functional, cell-based; conditions: HepG3, 72 h
[14] = system: HepG2; assay: Cytotoxicity against human HepG2 cells by MTT assay; type: functional, cell-based
[15] = system: SK-HEP1; assay: Antiproliferative activity against human SK-HEP1 cells assessed as cell growth inhibition by SRB method; type: functional
[16] = system: HepG2; assay: Antiproliferative activity against human HepG2 cells assessed as cell growth inhibition by SRB method; type: functional
[17] = system: HepG2; assay: Antimigratory activity against human HepG2 cells assessed as reduction in cell migration by cell migration assay; type: functional, cell-based
[18] = system: Bel-7402; assay: Cytotoxicity against human 7402 hepatoma cells incubated for 24 hrs by MTT assay; type: functional, cell-based; conditions: Bel-7402, 24 h
[19] = system: MDA-MB-435; assay: Cytotoxicity against human MDA-MB-435 cells incubated for 24 hrs by MTT assay; type: functional, cell-based; conditions: MDA-MB-435, 24 h
[20] = system: HepG2; assay: Antiproliferative activity against human HepG2 cells incubated for 72 hrs; type: functional, cell-based; conditions: HepG2, 72 h
[21] = system: HepG2; assay: Cytotoxicity against human HepG2 cells by SRB assay; type: functional, cell-based
[22] = system: SMMC-7721; assay: Cytotoxicity against human SMMC-7721 cells by SRB assay; type: functional, cell-based
[23] = system: PLC-PRF-5; assay: Cytotoxicity against human PLC-PRF-5 cells by SRB assay; type: functional, cell-based
[24] = system: Hep 3B2; assay: Cytotoxicity against human Hep3B cells by MTT assay; type: functional, cell-based
[25] = system: HA22T cell line; assay: Cytotoxicity against human HA22T cells by MTT assay; type: functional, cell-based
[26] = system: HepG2; assay: Antiproliferative activity against doxorubicin resistant human HepG2 cells for 24 hrs in presence of c-phycocyanin by MTT assay; conditions: HepG2, 24 h
[27] = system: HepG2; assay: Antiproliferative activity against human HepG2 cells by MTT assay; type: functional, cell-based
[28] = Antiproliferative activity against human HCC cells by MTT assay; type: functional, cell-based
[29] = system: SNU-387; assay: Antiproliferative activity against human SNU-387 cells by MTT assay; type: functional, cell-based
[30] = system: Huh-7; assay: Antiproliferative activity against human Huh-7 cells by MTT assay; type: functional, cell-based

C[C@@]12C[C@@H](O)C[C@]3(C)C4=CC(=O)OCC4=C[C@@H](OC1=O)C23 (stereo partly specified)
Activity [1]: 86.4% | IC50 [2]: 19 µM

CC1=CC[C@@H]2[C@@H](CC[C@@]2(C)O)C(C)(C)[C@H]1CC[C@@H]1[C@@]2(C)CC[C@@H](O)C(C)(C)O[C@@H]2CC[C@]1(C)O
IC50 [3]: 17.2 µM

CCCCCC1=C/C(=C\c2[nH]c(-c3ccc[nH]3)cc2OC)N=C1C
IC50 [4]: 0.04 µM

COc1cc(O)c2c(c1O)C(=O)C1=C(C2=O)C(O)C(O)C(C)(O)C1 (stereo unspecified)
IC50 [5]: 3.2 µM | IC50 [6]: 9.6 µM

C/C=C1/C(=C\c2[nH]c(/C=C3N=C(/C=C4/NC(=O)C(CC)=C4C)C(C)=C/3CCC(=O)O)c(CCC(=O)O)c2C)NC(=O)C1C (stereo unspecified)
Activity [7]: 40% | Activity [8]: 50%

C#CCNC1=CC(=O)c2c(O)c3c(c(O)c2C1=O)C[C@](C)(O)[C@H](O)C3
IC50 [9]: 10.1 µM

CCCCSC1=C(SCCCC)C(=O)c2c(O)c3c(c(O)c2C1=O)C[C@@H](O)[C@@](C)(O)C3
IC50 [9]: 5.04 µM

C[C@]1(O)Cc2c(O)c3c(c(O)c2C[C@H]1O)C(=O)C=C(NCc1ccc(F)cc1)C3=O
IC50 [9]: 11.2 µM

Oc1cc(Br)c(Cc2cc(O)c(O)cc2Br)cc1O
IC50 [10]: 15.9 µM

C=C(CC[C@@H](C)[C@H]1[C@@H](O)C[C@H]2[C@@H]3CC=C4C[C@@H](O)CC[C@]4(C)[C@H]3[C@H](O)C[C@]12C)C(C)C
IC50 [11]: 14.9 µM

COc1ccc2[nH]c([C@@H]3C4C5CCC([C@H](C)CCCC(C)C)[C@@]5(C)CCC4[C@@]4(C)CC[C@H](O)C[C@@]34O)nc2c1 (stereo partly specified)
IC50 [12]: 8.4 µM

C=C(CC[C@@H](C)[C@H]1[C@@H](O)C[C@H]2[C@@H]3CC=C4C[C@@H](O[C@@H]5O[C@@H](C)[C@@H](OC(C)=O)[C@@H](O)[C@@H]5O)CC[C@]4(C)[C@H]3[C@H](O)C[C@]12C)C(C)C
IC50 [13]: 18.9 µM | IC50 [11]: 17.6 µM

C/C=C(\N=C=S)C(=O)O[C@H]1[C@@H](OC(C)=O)[C@@H](O)[C@H]([C@@]2(O)CC(=O)C(N)=C(C(=O)O)C2=O)O[C@@H]1C
IC50 [14]: 4.3 µM

COC1=CC[C@@H]([C@@H](C)/C=C(C)/C=C\C=C/C(=O)N[C@H](C(=O)N/C=C\C[C@H](C/C=C(\C)Cl)OC(N)=O)C(C)(C)C)OC1=O
GI50 [15]: 0.000278 µM | GI50 [16]: 0.000752 µM

COC1=CC(=O)c2c(O)c3c(c(O)c2C1=O)C[C@]1(C)OCO[C@@H]1C3
IC50 [9]: 12.8 µM

CC(=O)O[C@H]1CC[C@]2(C)C3CC[C@@]4(C)C(CCC4[C@H](C)CCCC(C)C)C3[C@@H](c3nc4ccccc4[nH]3)[C@]2(O)C1 (stereo partly specified)
IC50 [12]: 4.2 µM

CC[C@H]1C=CCC[C@@]2(C[C@@H]3CC[C@]4(O)[C@H](C(=O)OCCCCCCCCCCCCCCCC(=O)N(CCCN)C[C@@H](O)CCN)[C@]5(CCC[C@@H](C)O5)NC(=N2)N34)O1
IC50 [17]: 0.18 µM

Cc1cc2nc([C@@H]3C4C5CCC([C@H](C)CCCC(C)C)[C@@]5(C)CCC4[C@@]4(C)CC[C@H](O)C[C@@]34O)[nH]c2cc1C (stereo partly specified)
IC50 [12]: 4.5 µM

C[C@]1(O)Cc2c(O)c3c(c(O)c2C[C@H]1O)C(=O)C1=C(SCCS1)C3=O
IC50 [9]: 1.98 µM

COC(=O)N[C@H]1[C@@H](C)O[C@@H](O[C@H]2C/C=C(\C)[C@@H]3C=C[C@@H]4[C@@H](O[C@H]5C[C@@H](O[C@H]6C[C@@H](O)[C@@H](O[C@@H]7C[C@@H](O)[C@@H](OC)[C@H](C)O7)[C@H](C)O6)[C@@H](O)[C@H](C)O5)[C@H](C)C[C@H](C)[C@H]4[C@]3(C)/C(O)=C3\C(=O)O[C@]4(C[C@@H](C)C(CO)=C[C@H]4/C=C/2C)C3=O)C[C@]1(C)[N+](=O)[O-]
IC50 [18]: 0.506 µM | IC50 [19]: 52.1 µM

CC[C@H]1C=CCC[C@@]2(C[C@@H]3CC[C@]4(O)[C@H](C(=O)OCCCCCCCCCCCCCCCCC(=O)N(CCCN)C[C@@H](O)CCN)[C@]5(CCC[C@@H](C)O5)NC(=N2)N34)O1
IC50 [20]: 2.11 µM

C[C@@H]1O[C@@H](O[C@H]2CC[C@H](O[C@@]3(C)CC(=O)[C@]4(O)C5=C(C=C[C@]4(O)C3)C(=O)c3c(ccc([C@H]4C[C@H]6O[C@H]7CC(=O)[C@H](C)O[C@@H]7O[C@@H]6[C@@H](C)O4)c3O)C5=O)O[C@H]2C)C=CC1=O
IC50 [21]: 0.135 µM | IC50 [22]: 0.033 µM | IC50 [23]: 0.244 µM

CCCCC/C=C\CC1(O)C=C(Br)C(=O)/C1=C\C=C\CCCC(=O)OC (stereo unspecified)
IC50 [24]: 0.47 µM | IC50 [14]: 0.59 µM | IC50 [25]: 0.41 µM

CC[C@H]1C=CCC[C@@]2(C[C@@H]3CCC4[C@H](C(=O)OCCCCCCCCCCCCCCCC(=O)N(CCCN)C[C@@H](O)CCN)[C@]5(CCC[C@@H](C)O5)NC(=N2)N43)O1 (stereo partly specified)
IC50 [20]: 2.66 µM

COC(=O)N[C@H]1[C@@H](C)O[C@@H](O[C@H]2C/C=C(\C)[C@@H]3C=C[C@@H]4[C@@H](O[C@H]5C[C@@H](O[C@H]6C[C@@H](O)[C@@H](O[C@@H]7C[C@@H](O)[C@@H](OC)[C@H](C)O7)[C@H](C)O6)[C@@H](O)[C@H](C)O5)[C@H](C)C[C@H](C)[C@H]4[C@]3(C)/C(O)=C3\C(=O)O[C@]4(C[C@@H](C)C(CO)=C[C@H]4/C=C/2C)C3=O)C[C@]1(C)N
IC50 [18]: 625 µM | IC50 [19]: 6.48 µM

CCC(C)SC1=C(SC)C(=O)c2c(O)c3c(c(O)c2C1=O)C[C@](C)(O)[C@H](O)C3 (stereo partly specified)
IC50 [9]: 2.39 µM

COc1cccc2c1C(=O)c1c(O)c3c(c(O)c1C2=O)C[C@@](O)(C(=O)CO)C[C@@H]3O[C@H]1C[C@H](N)[C@H](O)[C@H](C)O1 [DOXORUBICIN]
IC50 [26]: 10 µM | IC50 [21]: 0.919 µM | IC50 [22]: 0.706 µM | IC50 [23]: 1.03 µM

COc1cccc2c1C(=O)c1c(O)c3c(c(O)c1C2=O)C[C@@](O)(C(=O)CO)C[C@@H]3O[C@H]1C[C@H](N)[C@@H](O)[C@H](C)O1 [EPIRUBICIN]
IC50 [9]: 0.96 µM

O=c1[nH]cc(F)c(=O)[nH]1 [FLUOROURACIL]
IC50 [2]: 20 µM

CO[C@@]12[C@H](COC(N)=O)C3=C(C(=O)C(C)=C(N)C3=O)N1C[C@@H]1N[C@@H]12 [MITOMYCIN]
IC50 [4]: 0.13 µM

C/C=C\C[C@@H](C/C=C\NC(=O)[C@@H](NC(=O)\C=C/C=C\C(C)=C\[C@H](C)[C@@H]1CC=C(OC)C(=O)O1)C(C)(C)C)OC(N)=O [PLOCABULIN]
GI50 [15]: 0.000179 µM | GI50 [16]: 0.00276 µM

CNC(=O)c1cc(Oc2ccc(NC(=O)Nc3ccc(Cl)c(C(F)(F)F)c3)cc2)ccn1 [SORAFENIB]
IC50 [27]: 6.4 µM | IC50 [28]: 21.2 µM | IC50 [29]: 259 µM | IC50 [30]: 4.25 µM

CC[C@]1(O)C[C@@H]2CN(CCc3c([nH]c4ccccc34)[C@@](C(=O)OC)(c3cc4c(cc3OC)N(C)[C@H]3[C@@](O)(C(=O)OC)[C@H](OC(C)=O)[C@]5(CC)C=CCN6CC[C@]43[C@@H]65)C2)C1 [VINBLASTINE]
GI50 [15]: 0.0378 µM
